Structures can show the parent of a compound that is named as a salt.
Key:
human GSK3α = molecular target: T1, human GSK3α (Homo sapiens, UniProt P49840); assay: In vitro enzymatic activity assay, GSK3α; type: biochemical; settings: 1.0 mM ATP, 1.0 μM peptide substrate, 120 min, 25° C, read-out: Enzyme GSK3α (IC50)
T1 construct: Full length human GSK3α or GSK3B expressed as N-terminal GST fusion proteins; GST (N); purchased Carna Biosciences (Japan); host or cells: baculovirus host

GSK3B [1] = molecular target: T2, GSK3B (Homo sapiens, UniProt P49841); assay: NanoBRET cellular target engagement assay, Nanoluc-GSK3B in HEK293 cells; type: cell-based; set-up: expressed in transfected cells; settings: NanoBRET GSK3β IC50, HEK293 cells, tracer K-8, 2 hours, 37° C
T2 sequence (P49841 whole entry): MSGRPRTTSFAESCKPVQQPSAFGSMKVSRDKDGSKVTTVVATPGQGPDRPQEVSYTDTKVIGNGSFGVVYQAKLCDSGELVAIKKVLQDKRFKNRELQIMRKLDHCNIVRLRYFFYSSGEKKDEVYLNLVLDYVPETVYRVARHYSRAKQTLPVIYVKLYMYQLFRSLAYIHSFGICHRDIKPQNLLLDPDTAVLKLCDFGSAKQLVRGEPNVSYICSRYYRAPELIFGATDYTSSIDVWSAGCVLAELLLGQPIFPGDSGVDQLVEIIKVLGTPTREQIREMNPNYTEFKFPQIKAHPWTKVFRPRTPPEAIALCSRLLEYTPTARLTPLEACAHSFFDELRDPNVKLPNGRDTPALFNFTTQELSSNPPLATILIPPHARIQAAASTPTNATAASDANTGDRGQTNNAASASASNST

GSK3A = molecular target: T3, GSK3A (Homo sapiens, UniProt P49840); assay: NanoBRET cellular target engagement assay, Nanoluc-GSK3A in HEK293 cells; type: cell-based; settings: NanoBRET GSK3α IC50, HEK293 cells, tracer K-8, 2 hours, 37° C
T3 construct: expressed in transfected cells
T3 sequence (P49840 whole entry): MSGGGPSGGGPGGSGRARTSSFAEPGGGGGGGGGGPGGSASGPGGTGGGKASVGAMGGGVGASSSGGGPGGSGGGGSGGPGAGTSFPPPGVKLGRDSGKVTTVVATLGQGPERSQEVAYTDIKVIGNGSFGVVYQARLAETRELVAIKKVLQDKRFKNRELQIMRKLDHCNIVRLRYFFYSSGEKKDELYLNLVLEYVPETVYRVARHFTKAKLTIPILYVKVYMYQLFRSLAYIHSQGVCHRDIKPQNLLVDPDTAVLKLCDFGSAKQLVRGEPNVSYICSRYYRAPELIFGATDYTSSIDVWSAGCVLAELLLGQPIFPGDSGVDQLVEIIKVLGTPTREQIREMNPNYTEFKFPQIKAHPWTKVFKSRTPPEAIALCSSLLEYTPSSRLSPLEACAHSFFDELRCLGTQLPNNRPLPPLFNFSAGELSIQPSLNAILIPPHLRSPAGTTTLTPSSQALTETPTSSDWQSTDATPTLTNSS

GSK3B [2] = molecular target: T2, GSK3B; assay: In vitro enzymatic activity assay, GSK3β; type: biochemical; set-up: Full length human GSK3α or GSK3B expressed as N-terminal GST fusion proteins; GST (N); purchased Carna Biosciences (Japan); host or cells: baculovirus host; settings: 1.0 mM ATP, 1.0 μM peptide substrate, 120 min, 25° C, read-out: Enzyme GSK3β (IC50)

T1 sequence (P49840 whole entry, the tested form may be a part): as the sequence (P49840 whole entry) above

SMILES | IC50 (human GSK3α) | IC50 (GSK3B [1]) | IC50 (GSK3A) | IC50 (GSK3B [2])
CCOc1cc(Cl)c(-n2cnc(N)c(C(=O)Nc3cncc(C4COCCCN4)c3)c2=O)c(Cl)c1 (single isomer, unassigned) [Example 135, (R)-N-(5-(1,4-oxazepan-3-yl)pyridin-3-yl)-4-amino-1-(2,6-dichloro-4-ethoxyphenyl)-6-oxo-1,6-dihydropyrimidine-5-carboxamide or (S)-N-(5-(1,4-oxazepan-3-yl)pyridin-3-yl)-4-amino-1-(2,6-dichloro-4-ethoxyphenyl)-6-oxo-1,6-dihydropyrimidine-5-carboxamide] | 3.2 nM | 264 nM | 4.5 nM | 184 nM
CC(C)Oc1cc(Cl)c(-n2cnc(N)c(C(=O)Nc3cncc([C@@H]4CCCCN4)c3)c2=O)c(Cl)c1 [Example 124, (S)-4-amino-1-(2,6-dichloro-4-isopropoxyphenyl)-6-oxo-N-(5-(piperidin-2-yl)pyridin-3-yl)-1,6-dihydropyrimidine-5-carboxamide] | 7 nM | 404 nM | 7.8 nM | 393 nM
CCOc1cc(Cl)c(-n2cnc(N)c(C(=O)Nc3cncc(C(C)NC)c3)c2=O)c(Cl)c1 (single isomer, unassigned) [Example 24, (R)-4-amino-1-(2,6-dichloro-4-ethoxyphenyl)-N-(5-(1-(methylamino)ethyl)pyridin-3-yl)-6-oxo-1,6-dihydropyrimidine-5-carboxamide or (S)-4-amino-1-(2,6-dichloro-4-ethoxyphenyl)-N-(5-(1-(methylamino)ethyl)pyridin-3-yl)-6-oxo-1,6-dihydropyrimidine-5-carboxamide] | 4.1 nM | 147 nM | 2.8 nM | 298 nM
COc1cc(C)c(-n2cnc(N)c(C(=O)Nc3cccc(C4(N)CCC4)c3)c2=O)c(Cl)c1 [Example 38, 4-amino-N-(3-(1-aminocyclobutyl)phenyl)-1-((S)-2-chloro-4-methoxy-6-methylphenyl)-6-oxo-1,6-dihydropyrimidine-5-carboxamide] | 4.6 nM | 230 nM | 3.6 nM | 282 nM
COc1c(CN)cccc1NC(=O)c1c(N)ncn(-c2c(Cl)cccc2Cl)c1=O [Example 221, 4-amino-N-(3-(aminomethyl)-2-methoxyphenyl)-1-(2,6-dichlorophenyl)-6-oxo-1,6-dihydropyrimidine-5-carboxamide trifluoroacetate] | 15.6 nM | 235 nM | 7.3 nM | 400 nM
CN[C@@H](C)c1cncc(NC(=O)c2c(N)ncn(-c3c(Cl)cc(OC4CC4)cc3Cl)c2=O)c1 (single isomer, unassigned) [Example 195, (S)-4-amino-1-(2,6-dichloro-4-cyclopropoxyphenyl)-N-(5-(1-(methylamino)ethyl)pyridin-3-yl)-6-oxo-1,6-dihydropyrimidine-5-carboxamide or (R)-4-amino-1-(2,6-dichloro-4-cyclopropoxyphenyl)-N-(5-(1-(methylamino)ethyl)pyridin-3-yl)-6-oxo-1,6-dihydropyrimidine-5-carboxamide] | 11 nM | 462 nM | 5.4 nM | 632 nM
CCOc1cc(Cl)c(-n2cnc(N)c(C(=O)Nc3cncc(CNCCO)c3)c2=O)c(Cl)c1 [Example 26, 4-amino-1-(2,6-dichloro-4-ethoxyphenyl)-N-(5-(((2-hydroxyethyl)amino)methyl)pyridin-3-yl)-6-oxo-1,6-dihydropyrimidine-5-carboxamide] | 5.5 nM | 269 nM | 4.4 nM | 327 nM
Cc1cc(C(F)(F)F)cc(C)c1-n1cnc(N)c(C(=O)Nc2cncc(C3CCCC(C)N3)c2)c1=O (single isomer, unassigned) [Example 90] | 15.6 nM | 700 nM | 6.5 nM | 1070 nM
CCc1cc(C)c(-n2cnc(N)c(C(=O)Nc3cncc(C4CCCCCN4)c3)c2=O)c(C)c1 (single isomer, unassigned) [Example 148, (R)-4-amino-N-(5-(azepan-2-yl)pyridin-3-yl)-1-(4-ethyl-2,6-dimethylphenyl)-6-oxo-1,6-dihydropyrimidine-5-carboxamide or (S)-4-amino-N-(5-(azepan-2-yl)pyridin-3-yl)-1-(4-ethyl-2,6-dimethylphenyl)-6-oxo-1,6-dihydropyrimidine-5-carboxamide] | 7.2 nM | 349 nM | 4.3 nM | 317 nM
Nc1ncn(-c2c(Cl)cc(C(F)F)cc2Cl)c(=O)c1C(=O)Nc1cncc([C@@H]2CCCCN2)c1 [Example 56, (S)-4-amino-1-(2,6-dichloro-4-(difluoromethyl)phenyl)-6-oxo-N-(5-(piperidin-2-yl)pyridin-3-yl)-1,6-dihydropyrimidine-5-carboxamide] | 5.7 nM | 273 nM | 4.8 nM | 323 nM
COc1cc(Cl)c(-n2cnc(N)c(C(=O)Nc3cncc(C4CCC(C)N4)c3)c2=O)c(Cl)c1 (single isomer, unassigned) [Example 79] | 4.3 nM | 170 nM | 2.4 nM | 317 nM
Cc1cc(OC(F)(F)F)cc(C)c1-n1cnc(N)c(C(=O)Nc2cncc([C@H]3CCCCN3)c2)c1=O [Example 110, (R)-4-amino-1-(2,6-dimethyl-4-(trifluoromethoxy)phenyl)-6-oxo-N-(5-(piperidin-2-yl)pyridin-3-yl)-1,6-dihydropyrimidine-5-carboxamide] | 9.9 nM | 335 nM | 3.7 nM | 568 nM
COc1cc(C)c(-n2cnc(N)c(C(=O)Nc3cncc(C4CCCCCN4)c3)c2=O)c(C)c1 (single isomer, unassigned) [Example 53, (R)-4-amino-N-(5-(azepan-2-yl)pyridin-3-yl)-1-(4-methoxy-2,6-dimethylphenyl)-6-oxo-1,6-dihydropyrimidine-5-carboxamide or (S)-4-amino-N-(5-(azepan-2-yl)pyridin-3-yl)-1-(4-methoxy-2,6-dimethylphenyl)-6-oxo-1,6-dihydropyrimidine-5-carboxamide] | 12.9 nM | 356 nM | 6.8 nM | 625 nM
COCc1cc(C)c(-n2cnc(N)c(C(=O)Nc3cncc(C4CCCCCN4)c3)c2=O)c(C)c1 (single isomer, unassigned) [Example 100, (R)-4-amino-N-(5-(azepan-2-yl)pyridin-3-yl)-1-(4-(methoxymethyl)-2,6-dimethylphenyl)-6-oxo-1,6-dihydropyrimidine-5-carboxamide or (S)-4-amino-N-(5-(azepan-2-yl)pyridin-3-yl)-1-(4-(methoxymethyl)-2,6-dimethylphenyl)-6-oxo-1,6-dihydropyrimidine-5-carboxamide] | 8.2 nM | 293 nM | 3.9 nM | 348 nM
Nc1ncn(-c2c(Cl)cc(C(F)(F)F)cc2Cl)c(=O)c1C(=O)Nc1cncc([C@@H]2CCCCN2)c1 [Example 119, (S)-4-amino-1-(2,6-dichloro-4-(trifluoromethyl)phenyl)-6-oxo-N-(5-(piperidin-2-yl)pyridin-3-yl)-1,6-dihydropyrimidine-5-carboxamide] | 8.1 nM | 502 nM | 8.1 nM | 414 nM
CCOc1cc(C)c(-n2cnc(N)c(C(=O)Nc3cncc(C4CCC(C)N4)c3)c2=O)c(C)c1 (single isomer, unassigned) [Example 92] | 16.4 nM | 584 nM | 6.8 nM | 1030 nM
Cc1cc(C(F)F)cc(C)c1-n1cnc(N)c(C(=O)Nc2cncc([C@H]3CCCCN3)c2)c1=O [Example 97, (R)-4-amino-1-(4-(difluoromethyl)-2,6-dimethylphenyl)-6-oxo-N-(5-(piperidin-2-yl)pyridin-3-yl)-1,6-dihydropyrimidine-5-carboxamide] | 3.6 nM | 121 nM | 1.8 nM | 230 nM
CCNCc1cncc(NC(=O)c2c(N)ncn(-c3c(Cl)cc(C(F)(F)F)cc3Cl)c2=O)c1 [Example 22, 4-amino-1-(2,6-dichloro-4-(trifluoromethyl)phenyl)-N-(5-((ethylamino)methyl)pyridin-3-yl)-6-oxo-1,6-dihydropyrimidine-5-carboxamide] | 8.4 nM | 334 nM | 5.6 nM | 389 nM
Nc1ncn(-c2c(Cl)cc(N3CCC3)cc2Cl)c(=O)c1C(=O)Nc1cncc([C@@H]2CCCCN2)c1 [Example 209, (S)-4-amino-1-(4-(azetidin-1-yl)-2,6-dichlorophenyl)-6-oxo-N-(5-(piperidin-2-yl)pyridin-3-yl)-1,6-dihydropyrimidine-5-carboxamide] | 5.2 nM | 300 nM | 5.9 nM | 383 nM
Nc1ncn(-c2c(Cl)cccc2Cl)c(=O)c1C(=O)Nc1cccc(C2CCCN2)c1F (single isomer, unassigned) [Example 167, (S)-4-amino-1-(2,6-dichlorophenyl)-N-(2-fluoro-3-(pyrrolidin-2-yl)phenyl)-6-oxo-1,6-dihydropyrimidine-5-carboxamide or (R)-4-amino-1-(2,6-dichlorophenyl)-N-(2-fluoro-3-(pyrrolidin-2-yl)phenyl)-6-oxo-1,6-dihydropyrimidine-5-carboxamide] | 45.4 nM | 1860 nM | 27.2 nM | 1810 nM
